Data: patent publication US10463664B2, “Inhibitors of HSV nucleotidyl transferases and uses therefor” (Saint Louis University, priority 2013, dated 2019)

What was measured:
HSV-1 [1] = test: HSV-1 replication inhibition in primary human foreskin fibroblasts; type: cell-based, herpes simplex virus 1; conditions: HFF cells, relative to DMSO-treated control
Experimental: (§1) Anti-HSV-1 and -HSV-2 Replication Assay. Compounds to be screened were diluted in PBS supplemented to contain 2% newborn calf serum and 1% glutamine, and added in 100 μL, volume to confluent cell monolayers in 24-well cluster plates. Immediately thereafter HSV-1 and HSV-2, diluted in the supplemented PBS medium, were added to the wells in 50 μl volume such that the final concentration of compound was 50 μM and 5 μM and the multiplicity of infection was 0.1. The plates were incubated at 37° C. for 1 hour and then virus-containing inoculum was removed and the wells were washed once in PBS. Compounds, diluted to 50 μM and 5 μM in DMEM supplemented to contain 2% newborn calf serum and 1% each penicillin/streptomycin, were added at 0.5 mL/well. Plates were incubated at 37° C. an additional 23 hr, and then the plates were visually inspected through a phase contrast microscope for cytopathic effect, and for toxic effect. […] The entire contents of each well were collected by scraping. Samples were frozen at −80° C., and then subsequently thawed, sonicated, and infectious virus titer was determined by standard plaque assay on Vero cell monolayers. Because the compounds were dissolved at 10 mM in 100% DMSO, equivalent dilutions of DMSO were added to additional wells as a control for effects of the diluent. Each experiment was repeated once. EC50 values were determined as above except that serial dilutions of the compound to be tested were prepared starting at 50 μM. The inhibitory values were calculated by non-linear curve-fitting in GraphPad Prism.
(§2) Inhibition of viral replication was next assessed in human foreskin fibroblasts (HFF) to determine whether NTS inhibitors could block HSV-1 and HSV-2 replication in a physiologically relevant, primary human cell type. […] Viral yields 24 hours post-infection were measured by plaque assay.

HSV-1 [2] = test: Anti-HSV-1 replication assay in Vero cells, titer by plaque assay; type: cell-based, herpes simplex virus 1; conditions: for Anti-HSV-1 Log10 suppression 5 μM / Anti-HSV-1 Log10 suppression 50 μM: moi 0.1, 24 h, relative to DMSO
Procedure, shortened: (§3)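 Well lysates titered by plaque assay on Vero cells versus DMSO controls; EC50 by non-linear fit from serial dilutions starting at 50 μM.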

in vitro = conditions: human
Experimental: Toxicity Assays. Qualitative assessments of cytotoxicity were done visually by inspecting the cells in the primary screening assays. For the quantitative assays, cells were plated in 96-well plates at 1.0×10^4 per well. The next day the compounds were added at 0.78 to 100 μM in a final concentration of 1% (v/v) DMSO, and the cells were incubated for 24 hours under conditions identical to those employed for the viral replication inhibition assays. Mitochondrial toxicity was measured by incubating the cells with 0.25 mg/mL thiazolyl blue tetrazolium bromide (MTT, SigmaAldrich Chemical Co.), the cultures were incubated for 60 min, metabolites were solubilized in acidic isopropanol, and absorbance was read at 570 nm. Cellular lysis was measured by detecting release of intracellular proteases with the CytoTox-Glo assay (Promega) according to the manufacturer's instructions. Percent viability was determined for each compound concentration from the maximal absorbance or luminosity data, and then CC50 values were calculated by non-linear curve fitting using GraphPad Prism.
as §2

HSV-2 [3] = test: HSV-2 replication inhibition in primary human foreskin fibroblasts; type: cell-based, herpes simplex virus 2; conditions: HFF cells, relative to DMSO-treated control
Experimental: as §1, §2

human RNaseH1 = target: T1, human RNaseH1 (Homo sapiens, UniProt O60930); test: Biochemical inhibition of human RNaseH1 (oligonucleotide-directed RNA cleavage assay); conditions: compounds at 60, 20 or 10 μM
T1 construct: hexahistidine; made in house; host or cells: E. coli
T1 sequence (O60930 1-286): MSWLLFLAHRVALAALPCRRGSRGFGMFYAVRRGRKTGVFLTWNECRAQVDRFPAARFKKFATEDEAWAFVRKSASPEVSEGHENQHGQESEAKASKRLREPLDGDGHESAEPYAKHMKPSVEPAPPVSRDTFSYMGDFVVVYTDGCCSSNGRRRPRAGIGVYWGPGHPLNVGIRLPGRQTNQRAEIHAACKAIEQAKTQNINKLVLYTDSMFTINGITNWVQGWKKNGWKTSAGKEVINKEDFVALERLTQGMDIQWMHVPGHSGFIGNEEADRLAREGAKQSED
Procedure, shortened: (§4)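 A DNA oligonucleotide was annealed to internally ^32P-labeled RNA, and the heteroduplex was incubated with enzyme alongside compounds at 60, 20 or 10 μM. Cleavage products were resolved by electrophoresis and detected by autoradiography, then quantified against DMSO vehicle reactions.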

HSV-2 [4] = test: Anti-HSV-2 replication assay in Vero cells, titer by plaque assay; type: cell-based, herpes simplex virus 2; conditions: for Anti-HSV-2 Log10 suppression 5 μM / Anti-HSV-2 Log10 suppression 50 μM: moi 0.1, 24 h, relative to DMSO
Procedure, shortened: as §3

HBV RNaseH = target: T2, HBV RNaseH (Hepatitis B virus genotype A2 subtype adw2, UniProt P03159); test: Biochemical inhibition of HBV RNaseH (oligonucleotide-directed RNA cleavage assay); conditions: compounds at 60, 20 or 10 μM
T2 construct: One of the inventors recently produced active recombinant HBV RNase H; hexahistidine; made in house; host or cells: E. coli
Procedure, shortened: as §4

Vero cells [5] = test: Qualitative (visual) cytotoxicity assessment in primary screening; type: cell-based; conditions: visual, 50 μM
Experimental: Compound Cytotoxicity. Compound cytotoxicity was measured both subjectively and quantitatively. Subjective assessments were done by visually inspecting the infected cells at the end of the 24 hours infection window through a phase-contrast microscope.

Vero cells [6] = test: MTT mitochondrial toxicity assay in Vero cells; type: cell-based; conditions: 24 h; read-out: Vero cell toxicity MTT CC50
Vero cells [7] = test: CytoTox-Glo cellular lysis assay in Vero cells; type: cell-based; conditions: 24 h; read-out: Vero cell toxicity CTG CC50
Experimental: Quantitative toxicity measurements were conducted for all compounds that suppressed HSV replication by approximately 2 login or more at 5 μM plus a number of compounds with lesser inhibitory activity for comparison. Toxicity was assessed by measuring release of intracellular proteases into the culture medium due to cellular lysis. […] Consistent with the subjective assessments of toxicity, all compounds selected for quantitative toxicity assessment had CC50 values ≥50 μM by both the MTT and cellular lysis assays (Table 1).

HCMV strain AD169 [8] = test: Anti-HCMV CPE inhibition assay (crystal violet) in HFFs; type: cell-based, human cytomegalovirus; conditions: Human betaherpesvirus 5, AD169, 336 h, 14 days, read-out: EC50 against HCMV, CPE inhibition assay
Experimental: (§5) Anti-HCMV CPE inhibition and cytotoxicity assays. HFFs were infected with HCMV strain AD169 in the presence of serial dilutions of the compounds from 0.0192 to 60 μM. Fourteen days later the monolayers were stained with crystal violet, and retained cell density was quantified using a multiplate autoreader (BioTek). Cytotoxicity was measured the same way, except that the cells were uninfected and neutral red internalization by viable cells was measured.
(§6) Antiviral efficacy against HCMV. The ability of select HSV inhibitors to inhibit replication of another major human herpesvirus pathogen, human cytomegalovirus (HCMV) (65) was tested. This was based on the inhibitors strong suppression of HSV-1 and HSV-2 and the prediction that other members of the herpesvirus family would be sensitive to NTS inhibitors due to their shared DNA replication mechanism. Compounds #41, 46, 49, 55, 56, and 59 and the FDA-approved anti-HCMV drug ganciclovir were evaluated with crystal violet CPE and neutral red toxicity assays in HFFs. HFFs were infected with HCMV in the presence of serial dilutions of the compounds that were most inhibitory for HSVs. After 14 days the monolayers were stained and cell density was determined by OD reading. Compound cytotoxicity for uninfected cells was determined in the same manner except that neutral red uptake by viable cells was measured. […] The TI values for the four NTS inhibitors of HCMV ranged from 4 for compound #41 to 38 for #56. Therefore, NTS inhibitors can suppress HCMV replication in addition to inhibiting the HSVs.

[9] = Neutral red cytotoxicity assay in uninfected HFFs (14 day, with CPE assay); type: cell-based, human; conditions: human, uninfected human foreskin fibroblasts (HFFs)
Experimental: as §5, §6

HCMV strain AD169 [10] = test: HCMV plaque reduction assay in HFFs; type: cell-based, human cytomegalovirus; conditions: Human betaherpesvirus 5, AD169, 240 h, 10 days, read-out: EC50 against HCMV, plaque reduction assay
Experimental: (§7) HCMV plaque reduction EC50 and toxicity assays. Low passage primary HFFs were infected with HCMV strain AD169 in the presence of serial dilutions of the compounds from 0.032 to 100 μM. Ten days later the monolayers were stained with 1% neutral red solution in PBS. After rinsing, plaques were counted using a stereomicroscope and the EC50 was interpolated from the data. Cytotoxicity was measured using a plate-based assay in which compounds were added to HFFs at 0.032 to 100 μM. At the end of the incubation period, plates were stained for 1 h with a neutral red solution in PBS. The stain was then removed, the plates rinsed in PBS and dried, and dye internalized by viable cells was determined at OD550. CC50 values were interpolated from the data.
(§8) Compounds #41, 46, 49, 55, 56, and 59 and the FDA-approved, anti-HCMV drug ganciclovir were subsequently evaluated with plaque reduction and toxicity assays in HFFs. HFFs were infected with HCMV in the presence of serial dilutions of the compounds. After 10 days the cultures were stained with neutral red and plaques were counted. Compound cytotoxicity for uninfected cells was determined in the same manner except that neutral red uptake by viable cells was measured by optical density. […] The TI values for the five NTS inhibitors of HCMV ranged from 5 for compound #46 to 17 for #55 and 59. Therefore, NTS inhibitors can suppress HCMV replication in addition to inhibiting the HSVs.

[11] = Neutral red cytotoxicity assay in HFFs (10 day, with plaque reduction assay); type: cell-based, human; conditions: human, uninfected primary human foreskin fibroblasts (HFFs), 10 day assay
Experimental: as §7, §8

T2 sequence (P03159 693-845): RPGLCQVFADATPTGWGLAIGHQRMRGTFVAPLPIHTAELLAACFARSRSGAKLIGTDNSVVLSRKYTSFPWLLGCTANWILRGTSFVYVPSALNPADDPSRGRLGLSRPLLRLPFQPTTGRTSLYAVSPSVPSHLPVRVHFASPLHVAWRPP

Row | SMILES | Replication inhibition HSV-1 5 μM (HSV-1 [1]; 5 μM) [log10] | Replication inhibition HSV-1 50 μM (HSV-1 [1]; 50 μM) [log10] | Anti-HSV-1 Log10 suppression 5 μM (HSV-1 [2]) [log10] | Anti-HSV-1 Log10 suppression 50 μM (HSV-1 [2]) [log10] | Inhibition of HSV-1 replication (in words) (HSV-1 [2]; primary screening) | CC50 at 24 h (in vitro) [µM] | Replication inhibition HSV-2 5 μM (HSV-2 [3]; 5 μM) [log10] | Replication inhibition HSV-2 50 μM (HSV-2 [3]; 50 μM) [log10] | Anti-Human RNaseH1 (human RNaseH1) | Anti-HSV-2 Log10 suppression 5 μM (HSV-2 [4]) [log10] | Anti-HSV-2 Log10 suppression 50 μM (HSV-2 [4]) [log10] | Inhibition of HSV-2 replication (in words) (HSV-2 [4]; primary screening) | Anti-HBV RNaseH (HBV RNaseH) | Vero cell toxicity Qualitative (Vero cells [5]) | CC50 (Vero cells [6]) [µM] | CC50 (Vero cells [7]) [µM] | EC50 (HCMV strain AD169 [8]) [µM] | CC50 at 14 days [9] [µM] | EC50 (HCMV strain AD169 [10]) [µM] | CC50 at 10 days [11] [µM]
1 | O=c1cccccc1O [Compound 53, Tropolone] | −0.03 | 2.13 | 0.25 | 1.90 | negligible inhibitors | > 100 | 0.29 | 1.22 | − (no inhibition at 60 μM) | 0.45 | 1.45 | negligible inhibitors | − (no inhibition at 60 μM) | – | – | – | – | – | – | –
2 | O=C1Cc2ccccc2C(=O)N1O [Compound 1] | – | – | 0.28 | 2.66 | – | – | – | – | – | −0.11 | 3.12 | – | +++ (inhibition at 10 μM) | T? | > 100 | > 100 | – | – | – | –
3 | O=c1cc2oc3cc(O)c(O)cc3c(-c3ccccc3)c-2cc1O [Compound 31] | – | – | 0.21 | 3.01 | – | – | – | – | +++ (inhibition at 10 μM) | 0.22 | 3.56 | – | +++ (inhibition at 10 μM) | – | > 100 | > 100 | – | – | – | –
4 | C[C@H](Cc1ccc(O)c(O)c1)[C@@H](C)Cc1ccc(O)c(O)c1 [Compound 2] | – | – | −0.19 | 3.21 | – | – | – | – | − (no inhibition at 60 μM) | −0.15 | 4.38 | – | − (no inhibition at 60 μM) | – | > 100 | > 100 | – | – | – | –
5 | Nc1nc(O)c2ncn(COC(CO)CO)c2n1 [Ganciclovir, reference compound] | – | – | – | – | – | – | – | – | – | – | – | – | – | – | – | – | 0.33 | > 300 | 3.2 | > 100
